≈ marks a conversion by molar mass, not a printed value.
How the values were obtained:
[1] = test system: Gaeumannomyces graminis var. tritici (Ggt); test: In vitro assay: mycelial growth on minimal media agar plates (Percent Inhibition; IC50); assay type: cell-based; details: for inhibition at 0.1 ppm: 0.1 ppm in agar, read-out: In vitro(ppm) 0.1, Percent Inhibition; for inhibition at 0.1 ppm / inhibition at 1 ppm / inhibition at 10 ppm: 19 - 20 °C, 4 to 5 days; for inhibition at 1 ppm: 1 ppm in agar, read-out: In vitro(ppm) 1, Percent Inhibition; for inhibition at 10 ppm: 10 ppm in agar, read-out: In vitro(ppm) 10, Percent Inhibition; for IC50: interpolated from percent inhibition at 1, 0.1, 0.01, 0.001 and 0.0001 ppm
Experimental: The test compounds (0.25 mL of an appropriate stock solution in acetone) are incorporated into 25 mL minimal media agar [prepared by autoclaving a solution of 17.5 g Czapek Dox broth (Difco), 7.5 g purified agar or Bacto-agar (Difco), and 500 mL distilled/deionized water, and then adding 50 µL of 1 mg/mL thiamine hydrochloride and 50 µL of 1 mg/mL biotin in 5% ethanol] and plates are prepared.
Each plate is inoculated by placing in a triangular shape three 4-mm plugs of Gaeumannomyces graminis var. tritici (Ggt) grown on the minimal media agar described above. The plates are incubated in the dark at 19 - 20 °C for 4 to 5 days. The growth of the fungus is measured as the diameter of the mycelial growth. The result is expressed as Percent Inhibition, calculated as [1 - [(mm growth on treated plate - 4)/(mm growth on control plate - 4)]] x 100.
To determine IC5O values, an in vitro assay was run on each compound at the concentrations of 1, 0.1, 0.01, 0.001, and 0.0001 ppm. The percent inhibition was calculated for each concentration using the equation described in the in vitro assay under the section on Biological Assays. Using the two ordered pairs of (concentration, % inhibition) that bracket 50% inhibition of fungal growth, the concentration for 50% inhibition is calculated from the following equation. IC50 = [(50-I2 )C1 + (I1 -50)C2 ]/(I1 -I2 ), [formula] where C1 = 10C2.

[2] = test system: Ggt; test: In vivo assay: control of Ggt on wheat in 3-inch pots with infested soil, rated after four weeks;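 as to In vivo(ppm) 0.1, percent disease control: rate is mg active ingredient per pot in 3 mL solution not ppm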;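 as to In vivo(ppm) 0.5, percent disease control: rate is mg active ingredient per pot in 3 mL solution not ppm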; parameters: species or system Gaeumannomyces graminis var. tritici; details: Gaeumannomyces graminis, 672 h, wheat, soil infested with Ggt, after four weeks; for pest or weed control at 0.02 mg/pot: rate 0.02mg/pot, read-out: In vivo(ppm) 0.02mg/pot, percent disease control; for pest or weed control at 0.1 mg/pot: rate 0.1 (head prints ppm, head line ends mg/pot), read-out: In vivo(ppm) 0.1, percent disease control; for pest or weed control at 0.1 mg/pot / pest or weed control at 0.5 mg/pot: N = no control; for pest or weed control at 0.5 mg/pot: rate 0.5 (head prints ppm, head line ends mg/pot), read-out: In vivo(ppm) 0.5, percent disease control
Experimental: Compounds are tested for control of Ggt on 'Bergen' or 'Anza' varieties of wheat grown in 3-inch square pots containing soil infested with Ggt. The infestation is accomplished by mixing the soil with an inoculum prepared by growing Ggt on 1/4 strength potato dextrose agar (4.875 g potato dextrose agar, 5.0 g Bacto agar, 500 mL distilled, deionized water) in plates and using plugs from the plates to infest sterile oats (400 cc whole oats, 350 mL deionized water, autoclaved). After a one-month incubation period at room temperature, the oats are dried and mixed with the soil at 4% v/v. Four wheat seeds are placed on top of the soil in each pot. […] Five pots are used for each treatment level and the controls, which are untreated, inoculated and non-inoculated pots. After one hour drying time, the seeds are covered with more of the appropriate soil and a layer of vermiculite. The pots are placed in a growth chamber and watered each day. After four weeks, each pot is evaluated for evidence of disease by examination of the seminal roots of each plant under a dissecting microscope. A 0 to 5 rating scale having the following meanings is used: • 0 = no runner hyphae or lesions present • 1 = runner hyphae and a few small lesions present on <10% of root system • 2 = runner hyphae and small lesions present on 10 - 25% of root system • 3 = runner hyphae and lesions present on 25 - 50% of root system • 4 = runner hyphae and many, large, coalescing lesions on >50% of root system • 5 = root system and culm completely inundated with lesions and runner hyphae
From each set of five replicates a high or low score may be eliminated to assure the best representative scores are used to calculate a replicate mean by averaging the remaining scores. This mean score is then compared to the untreated control score and a percent disease control is calculated.

[3] = test system: Ggt; test: In vivo (8 week) seed treatment assay: Large Pot Greenhouse Take-All Assay; parameters: species or system Gaeumannomyces graminis var. tritici; details: wheat, 6-inch pots, roots rated after 7-10 weeks; for % control (rates are g/kg seed) 0.125: seed treatment 0.125 g/kg seed; for % control (rates are g/kg seed) 0.25: seed treatment 0.25 g/kg seed; for % control (rates are g/kg seed) 0.5: seed treatment 0.5 g/kg seed; for % control (rates are g/kg seed) 1 g: seed treatment 1 g/kg seed
Experimental: An advanced 8-week seed treatment in vivo assay in soil is as follows.
Compounds are tested for control of Ggt on 'Bergen' or 'Anza' varieties of wheat grown in 6-inch round pots containing soil (equal to thirds of Metro-mix, sand, and silt-loam field soil, all steam sterilized). Seeds are treated with a solution of compound of the present invention at 10,000 ppm stock solution in acetone. 20 mg in 2 ml will treat 10 g of seed at each of 4 rates. Using a 10,000 ppm stock for each compound make the following dilutions series:
A treatment jar is rinsed 2 times with 3 ml of actone. Then 1 ml of the solution is swirled to cover the base of the jar. 10 g of seed are added to the jar and capped after which the jar is swirled and shaken until the seeds get a rapid and even coverage. After about 30-50 seconds the lid is removed as the shaking is continued. After 1 minute the jar is set down to dry. When dry, the seed are poured back into the envelope for either planting in the pots or stored until such planting. The method of planting is as follows:
The 6-inch pots are packed to their ledge with the above soil mix.
a) Treated seed is placed on the surface of the soil (packed to ledge) at the rate of 8 seeds per pot with the seeds about 2-3 inches apart. 5 pots (replicates) are planted per treatment. b) 15 ml of oat inoculum (about 4g) are measured and sprinkled evenly over the soil surface of each pot. c) The soil/seed/inoculum is covered with 180 ml of soil mix (same as above). A 150 ml beaker filled to the top edge-is about 180 ml. d) Initially each of the prepared pots is watered lightly several times to wet soil without washing out seeds. e) In cool winter months the prepared pots are left in the greenhouse at 16° - 18°C with only minimal supplemental light. In warmer months the prepared pots are put in a growth chamber set at 17°C for 3-4 weeks to establish disease, then placed in a greenhouse until harvest. The wheat is harvested, washed, and the roots are rated after 7-10 weeks. f) A % of diseased root area is assigned values using 1, 5, 10, 20, 30, 40, 50, 60, 80, or 100 %. Each pot of plants gets a single rating.

CCNC(=O)c1c(OC(C)(C)CC)ccc2ccccc12 [Example 26, N-ethyl 2-[(1,1-dimethylpropyl)oxy]-1-naphthamide]
inhibition at 0.1 ppm [1]: 76% | inhibition at 1 ppm [1]: 95% | inhibition at 10 ppm [1]: 98% | pest or weed control at 0.02 mg/pot [2]: 17% | pest or weed control at 0.1 mg/pot [2]: 56% | pest or weed control at 0.5 mg/pot [2]: 84% | % control (rates are g/kg seed) 0.125 [3]: 25% | % control (rates are g/kg seed) 0.25 [3]: 25% | % control (rates are g/kg seed) 0.5 [3]: 4% | % control (rates are g/kg seed) 1 g [3]: 25%

C=CCNC(=O)c1c(OC(C)(C)CC)ccc2ccccc12 [Example 27, N-allyl 2-[(1,1-dimethylpropyl)oxy]-1-naphthamide]
inhibition at 0.1 ppm [1]: 93% | inhibition at 1 ppm [1]: 98% | inhibition at 10 ppm [1]: 98% | IC50 [1]: 8.44 ng/mL (≈ 0.0284 µM) | pest or weed control at 0.02 mg/pot [2]: 27% | pest or weed control at 0.1 mg/pot [2]: 75% | pest or weed control at 0.5 mg/pot [2]: 95% | % control (rates are g/kg seed) 0.125 [3]: 21% | % control (rates are g/kg seed) 0.25 [3]: 21% | % control (rates are g/kg seed) 0.5 [3]: 0% | % control (rates are g/kg seed) 1 g [3]: 25%

C=CCNC(=O)c1c(OC(C)(CC)CC)ccc2ccccc12 [Example 29, N-allyl 2-[(1,1-diethylethyl)oxy]-1-naphthamide]
inhibition at 0.1 ppm [1]: 96% | inhibition at 1 ppm [1]: 96% | inhibition at 10 ppm [1]: 96% | IC50 [1]: 8.14 ng/mL (≈ 0.0261 µM) | pest or weed control at 0.02 mg/pot [2]: 40% | pest or weed control at 0.1 mg/pot [2]: 57% | pest or weed control at 0.5 mg/pot [2]: 75% | % control (rates are g/kg seed) 0.25 [3]: 0% | % control (rates are g/kg seed) 0.5 [3]: 4% | % control (rates are g/kg seed) 1 g [3]: 4%

CCN(CC)C(=O)c1c(OC(C)(CC)CC)ccc2ccccc12 [Example 30, N,N-diethyl 2-[(1,1-diethylethyl)oxy]-1-naphthamide]
inhibition at 0.1 ppm [1]: 91% | inhibition at 1 ppm [1]: 96% | inhibition at 10 ppm [1]: 96% | IC50 [1]: 7.43 ng/mL (≈ 0.0227 µM) | pest or weed control at 0.02 mg/pot [2]: 31% | pest or weed control at 0.1 mg/pot [2]: 43% | pest or weed control at 0.5 mg/pot [2]: 28% | % control (rates are g/kg seed) 0.25 [3]: 22% | % control (rates are g/kg seed) 0.5 [3]: 0% | % control (rates are g/kg seed) 1 g [3]: 13%

CCCNC(=O)c1c(OC(CC)(CC)CC)ccc2ccccc12 [Example 34, N-propyl 2-[(1,1-diethylpropyl)oxy]-1-naphthamide]
inhibition at 0.1 ppm [1]: 95% | inhibition at 1 ppm [1]: 95% | inhibition at 10 ppm [1]: 95% | IC50 [1]: 6.62 ng/mL (≈ 0.0202 µM) | pest or weed control at 0.02 mg/pot [2]: 18% | pest or weed control at 0.1 mg/pot [2]: 44% | pest or weed control at 0.5 mg/pot [2]: 49% | % control (rates are g/kg seed) 0.25 [3]: 17% | % control (rates are g/kg seed) 0.5 [3]: 0% | % control (rates are g/kg seed) 1 g [3]: 9%

C=CCNC(=O)c1c(OC2(C)CCCC2)ccc2ccccc12 [Example 37, N-allyl 2-[(1-methyl-1-cyclopentyl)oxy]-1-naphthamide]
inhibition at 0.1 ppm [1]: 93% | inhibition at 1 ppm [1]: 98% | inhibition at 10 ppm [1]: 98% | IC50 [1]: 7.43 ng/mL (≈ 0.024 µM) | pest or weed control at 0.02 mg/pot [2]: 28% | pest or weed control at 0.1 mg/pot [2]: 53% | pest or weed control at 0.5 mg/pot [2]: 63% | % control (rates are g/kg seed) 0.125 [3]: 4% | % control (rates are g/kg seed) 0.25 [3]: 4% | % control (rates are g/kg seed) 0.5 [3]: 4% | % control (rates are g/kg seed) 1 g [3]: 4%

CCCNC(=O)c1c(OC2(C)CCCCC2)ccc2ccccc12 [Example 40, N-propyl 2-[(1-methyl-1-cyclohexyl)oxy]-1-naphthamide]
inhibition at 0.1 ppm [1]: 74% | inhibition at 1 ppm [1]: 83% | inhibition at 10 ppm [1]: 98% | IC50 [1]: 63.6 ng/mL (≈ 0.195 µM) | pest or weed control at 0.02 mg/pot [2]: 3% | pest or weed control at 0.1 mg/pot [2]: 32% | pest or weed control at 0.5 mg/pot [2]: 60% | % control (rates are g/kg seed) 0.25 [3]: 13% | % control (rates are g/kg seed) 0.5 [3]: 13% | % control (rates are g/kg seed) 1 g [3]: 22%

From patent publication EP0619297B1, “Fungicides for the control of take-all desease of plants” (MONSANTO COMPANY, priority 1993, dated 1994)
